For data set [1], the system named is cells. As to the kind of experiment: Effect of precursor solution components, LIVE/DEAD cell assay. The protocol: LIVE/DEAD cell assay was used to visualize live and dead cells (Gaugain, et al. (1978) Biochemistry 17:5071-8; Gaugain, et al. (1978) Biochemistry 17:5078-88). […] To the resuspended cells was added 100 μL of calcein-AM/ethidium homodimer stain (stock solutions of the dyes were prepared as per manufacturer's protocol-Molecular Probes). Cells were incubated for 30 minutes and images were captured of both treatment and control groups using a fluorescence microscope.
(§1) Specifically, cells were treated with 0.05% to 1.5% (w/v) APS at pH 5 for 10 minutes or 0.05% to 1.5% (w/v) APS at pH 8 for 24, 48, or 72 hours and compared to controls in a MTS test and LIVE/DEAD cell assay. Similarly, cells were treated with 0.05% to 0.90% (w/v) TEMED at pH 5 for 10 minutes or 0.05% to 0.90% (w/v) TEMED at pH 8 for 24, 48, or 72 hours and compared to controls in a MTS test and LIVE/DEAD cell assay. Likewise, cells were treated with 0.05% to 1.0% (w/v) F-127 at pH 5 for 10 minutes or 0.05% to 1.0% (w/v) F-127 at pH 8 for 24, 48, or 72 hours and compared to controls in a MTS test and LIVE/DEAD cell assay.
(§2) Treatment groups were compared to untreated controls in both a MTS test and LIVE/DEAD cell assay.
(§3) The suspension in the test tube was allowed to stand for 5 minutes. Cells were treated with the supernatant for 10 minutes or 24, 48, or 72 hours. The saturated solution was aspirated from the wells, cells were washed and analyzed with the MTS test and LIVE/DEAD cell assay.
(§4) The effects of precursor solution constituents on cell viability were analyzed over a 72 hour period. The experiments were designed based on the conditions that the cells would be exposed to during the fabrication of superporous hydrogels; i.e., exposure to each constituent of SPH individually at pH of 5 for 10 minutes and thereafter for 24, 48 and 72 hours at pH of 8. […] 96 AQUEOUS ONE® solution Cell Proliferation Assay (MTS) and LIVE/DEAD cell assay were used to determine the effect of each of the constituents on cell viability.

The subject of data set [2] is cells. The protocol:
Effect of Hydrogel Precursor Solution Components on Cell Viability. Cells (10^5 cells/mL) were plated on 48-well plates and were allowed to adhere to the plates overnight. […] The pH of one solution was adjusted to 5 (using […]) and that of the other solution was adjusted to 8 (using 1 M NaOH). […] The treatment groups were compared to untreated controls where cells were incubated with media. […] To this, 30 μL of MTS test reagent was added. Cells were then incubated with MTS test reagent for 3 hours and absorbance recorded at 490 nm on a UV plate reader.
as §1, §2, §3, §4

The next data set relates to gingival fibroblasts. To be noted: cited from earlier work.
For data set [3], the system named is cells. As to the kind of experiment: Effect of physical foaming (nitrogen gas/compressed air) on cell viability. Format: cell-based. The protocol: Effect of Physical Foaming on Cell Viability. Cells (10^5 cells/mL) were suspended in media and treated with the precursor solution used in fabrication of superporous hydrogels. […] The precursor solution was then exposed to UV for 3.5 minutes. In one treatment group nitrogen gas/compressed air was applied to the top of the cells at 200 psi for 2 minutes at a flow rate of 4000 mL/minute. In a second treatment group, nitrogen gas/compressed air was applied from below the cells suspended in the Buchner funnel at 200 psi for 2 minutes at a flow rate of 4000 mL/minute. Thereafter, each of the groups was exposed to UV at 5 mW/cm^2 for 3 minutes, washed twice with DPBS containing Ca and Mg, resuspended in fresh media and transferred to a 48-well plate. Cells were incubated for 24, 48 and 72 hours and cell viability was determined via the MTS test and LIVE/DEAD cell assay.

The subject of data set [4] is cells. To be noted: cells in media at pH 5, 10 minutes, MTS and LIVE/DEAD. The protocol:
A third group was the untreated controls. At the end of 10 minutes, the cells were washed, resuspended in fresh media, and analyzed with the MTS test reagent and LIVE/DEAD cell assay.

Read-outs that look alike come from different tables or passages of the source.

What is called cell viability is a per cent measure of how many cells are alive, often set against a control. As for `N.N.O=S(=O)(O)OOS(=O)(=O)O` [APS, Ammonium persulphate], the live/dead cells result is “the cells were dead” in the data set with cells [1] (0.05% APS) and “dead cells at the end of each of the incubation periods” with cells [1] (APS, end of each incubation period). In the data set on cells [2] (0.05% APS, MTS), this molecule registered a cell viability of 60%. For the same molecule, the viable cells is 21.25±9.6% in the data set with cells [2] (0.70% APS, 10 minutes, pH 5, MTS); 16.83±4.8% with cells [2] (0.70% APS, 24 hours, pH 8, MTS); 14.8±6.8% with cells [2] (0.70% APS, 48 hours, pH 8, MTS); 11.63±0.3% in the data set on cells [2] (0.70% APS, 72 hours, pH 8, MTS). The toxicity result with cells [2] (APS 0.05% to 1.5%, 10 minutes, 24, 48 and 72 hours) is given as “toxic to cells at all concentrations tested”.
Regarding `CN(C)CCN(C)C` [TEMED, N,N,N′,N′-tetramethylethylenediamine], the live/dead cells entry in the data set on cells [1] (TEMED all concentrations, 10 minutes) is “cells were alive”; in the data set with cells [1] (TEMED, longer time periods) it was “they were dead”. Also, the viable cells with cells [2] (0.90% TEMED, 10 minutes, pH 5, MTS) is recorded as 108.59±1.23%; with cells [2] (0.90% TEMED, 24 hours, pH 8, MTS), 30.63±5.51%; with cells [2] (0.90% TEMED, 48 hours, pH 8, MTS), 20.41±6.92%; in the data set with cells [2] (0.90% TEMED, 72 hours, pH 8, MTS), 18.53±12.82%. Also, the toxicity entry was “no significant toxicity” with cells [2] (TEMED 0.05% to 0.90%, 10 minutes); “toxicity observed at all concentrations” in the data set on cells [2] (TEMED all concentrations, 24, 48 and 72 hours).
As for `O=C(O)CC(O)(CC(=O)O)C(=O)O` [citric acid], the viable cells entry with cells [2] (10 min, 2.4 % (w/v), pH 5) is listed as “about 99.7±11.6%”; with cells [2] (24 h, 2.4 % (w/v), pH 8), 28.95±5.70%; with cells [2] (48 h, 2.4 % (w/v), pH 8), 15.81±1.80%; in the data set on cells [2] (72 h, 2.4 % (w/v), pH 8) it was 16.20±6.81%. Further, in the data set with gingival fibroblasts (47.6 mM (pH 2.3) in water, within three minutes), the cell death entry was “complete cell death”. Besides, the “inhibition of attachment and spreading of fibroblasts on Type I collagen” value in the data set with gingival fibroblasts (medium containing 11.9 mM) was 22%. The “inhibition of attachment and spreading of fibroblasts on culture plates” value with gingival fibroblasts (medium containing 11.9 mM) is given as 58%. Also, the “inhibition of protein synthesis” value with gingival fibroblasts (within three hours of incubation) is 0.28%.
For the molecule `N#N` [nitrogen gas under pressure], the “cell death over 72 hours” value in the data set with cells [3] (cells washed and plated for 24, 48 and 72 hours after foaming) is “cell death observed over 72 hours”. In addition, the “cell death compared to untreated controls” value in the data set with cells [3] (determined immediately after treating cells) is “approximately 20%”.
On to `[Na+].[OH-]` [sodium hydroxide], for which the “cell death on sudden pH change from acidic to alkaline” value with cells [4] is given as “a significant amount of cell death”.

The values above are taken from US8414879B2, “Superporous hydrogel with cells encapsulated therein and method for producing the same” (The Board of Trustees of the University of Illinois, priority 2008, dated 2013).
